Patent publication US8415378B2, “Isoxazol-3(2H)-one analogs as therapeutic agents” (AstraZeneca AB, priority 2009, dated 2013)

Molecular target: T1, human Glu-plasminogen (Homo sapiens, UniProt P00747)
T1 construct: human Glu-plasminogen; purchased Chromogenix, Italy
Assay: Clot-lysis buffer assay
Assay type: biochemical
Description: The assay method used for evaluating biological activity of the compounds according to the invention was Clot-lysis buffer assay.
Tested substance were added to the reaction mixture in 10% DMSO. Reaction was started by the addition of thrombin.
Measured according to the Clot-lysis buffer assay described above.

T1 sequence (P00747 20-810 limits assumed): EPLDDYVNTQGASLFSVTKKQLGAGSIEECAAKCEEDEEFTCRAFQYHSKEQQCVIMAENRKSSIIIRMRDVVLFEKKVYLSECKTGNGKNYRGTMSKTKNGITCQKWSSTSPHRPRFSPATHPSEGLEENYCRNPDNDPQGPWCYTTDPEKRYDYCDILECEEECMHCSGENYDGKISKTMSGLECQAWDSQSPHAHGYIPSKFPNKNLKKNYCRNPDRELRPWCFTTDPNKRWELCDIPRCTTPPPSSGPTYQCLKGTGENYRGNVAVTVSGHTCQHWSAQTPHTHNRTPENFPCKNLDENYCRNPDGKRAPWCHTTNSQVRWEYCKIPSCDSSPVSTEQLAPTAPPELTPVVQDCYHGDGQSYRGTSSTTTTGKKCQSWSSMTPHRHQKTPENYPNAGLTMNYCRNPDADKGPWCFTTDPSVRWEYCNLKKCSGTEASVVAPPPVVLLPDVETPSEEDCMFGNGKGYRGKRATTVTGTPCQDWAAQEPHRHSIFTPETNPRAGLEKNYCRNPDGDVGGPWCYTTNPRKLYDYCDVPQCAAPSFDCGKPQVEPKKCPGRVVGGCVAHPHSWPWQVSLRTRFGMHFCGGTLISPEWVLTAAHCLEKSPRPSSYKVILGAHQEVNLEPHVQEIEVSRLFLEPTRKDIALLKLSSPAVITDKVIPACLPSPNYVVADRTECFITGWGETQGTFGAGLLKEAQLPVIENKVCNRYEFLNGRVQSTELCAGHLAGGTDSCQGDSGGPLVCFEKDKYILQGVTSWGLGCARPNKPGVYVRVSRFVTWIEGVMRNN

| IC50 | SMILES |
| --- | --- |
| 31.2 µM | O=c1cc([C@@H]2CCN[C@@H](C(F)F)C2)o[nH]1 (relative stereo) [Example 88, 5-(Trans-2-(difluoromethyl)piperidin-4-yl)isoxazol-3(2H)-one] |
| 92.9 µM | O=c1cc([C@@H]2CCN[C@H](Cc3cc(F)ccc3F)C2)o[nH]1 [Example 125, 5-((2S,4R)-2-(2,5-Difluorobenzyl)piperidin-4-yl)isoxazol-3(2H)-one] |
| 1.5 µM | O=c1cc([C@H]2CCN[C@@H](CC3CCC(F)(F)CC3)C2)o[nH]1 [Example 89, 5-((2S,4S)-2-((4,4-Difluorocyclohexyl)methyl)piperidin-4-yl)isoxazol-3(2H)-one] |
| 128 µM | O=c1cc([C@@H]2CCN[C@H](Cc3cc(F)cc(F)c3)C2)o[nH]1 [Example 131, 5-((2S,4R)-2-(3,5-Difluorobenzyl)piperidin-4-yl)isoxazol-3(2H)-one] |
| 147 µM | O=c1cc([C@@H]2CCN[C@@H](Cc3ccc(F)c(F)c3)C2)o[nH]1 [Example 123, 5-((2R,4R)-2-(3,4-Difluorobenzyl)piperidin-4-yl)isoxazol-3(2H)-one] |
| 1.5 µM | CS(=O)(=O)c1ccc([C@H]2C[C@@H](c3cc(=O)[nH]o3)CCN2)cc1 [Example 38, 5-((2R,4S)-2-(4-(Methylsulfonyl)phenyl)piperidin-4-yl)isoxazol-3(2H)-one] |
| 1.2 µM | O=c1cc([C@H]2CCN[C@@H](Cc3cc(F)ccc3F)C2)o[nH]1 [Example 124, 5-((2R,4S)-2-(2,5-Difluorobenzyl)piperidin-4-yl)isoxazol-3(2H)-one] |
| 90.7 µM | O=c1cc([C@@H]2CCN[C@@H](c3ccc(Cl)cc3F)C2)o[nH]1 (relative stereo) [Example 46, 5-(Trans-2-(4-chloro-2-fluorophenyl)piperidin-4-yl)isoxazol-3(2H)-one] |
| 2.2 µM | O=c1cc([C@H]2CCN[C@H](Cc3cc(F)cc(F)c3)C2)o[nH]1 [Example 132, 5-((2S,4S)-2-(3,5-Difluorobenzyl)piperidin-4-yl)isoxazol-3(2H)-one] |
| 1.1 µM | O=c1cc([C@H]2CCN[C@@H](Cc3cc(F)cc(F)c3)C2)o[nH]1 [Example 130, 5-((2R,4S)-2-(3,5-Difluorobenzyl)piperidin-4-yl)isoxazol-3(2H)-one] |
| 5 µM | O=c1cc([C@@H]2CCN[C@@H](Cc3cccc(C(F)(F)F)c3)C2)o[nH]1 (relative stereo) [Example 109, 5-(Trans-2-(3-(trifluoromethyl)benzyl)piperidin-4-yl)isoxazol-3(2H)-one] |
| 64.2 µM | O=c1cc([C@H]2CCN[C@H](c3ccccc3)C2)o[nH]1 [Example 78] |
| 4.3 µM | O=c1cc([C@@H]2CCN[C@@H](Cc3cc(F)c(F)c(F)c3)C2)o[nH]1 (relative stereo) [Example 145, 5-(Trans-2-(3,4,5-trifluorobenzyl)piperidin-4-yl)isoxazol-3(2H)-one] |
| 4.3 µM | CC(C)(C)c1ccc(C[C@@H]2C[C@@H](c3cc(=O)[nH]o3)CCN2)cc1 [Example 11, 5-((2S,4S)-2-(4-tert-Butylbenzyl)piperidin-4-yl)isoxazol-3(2H)-one] |
| 4.94 µM | O=c1cc([C@@H]2CCN[C@@H](Cc3ccc(F)cc3F)C2)o[nH]1 (relative stereo) [Example 136, 5-(Trans-2-(2,4-difluorobenzyl)piperidin-4-yl)isoxazol-3(2H)-one] |
| 70.7 µM | O=c1cc([C@@H]2CCN[C@@H](c3ccc(OC(F)(F)F)cc3F)C2)o[nH]1 (relative stereo) [Example 59, 5-(Trans-2-(2-fluoro-4-(trifluoromethoxy)phenyl)piperidin-4-yl)isoxazol-3(2H)-one] |

| IC50 | SMILES |
| --- | --- |
| 6.6 µM | CC(C)(C)c1cc(C[C@H]2C[C@@H](c3cc(=O)[nH]o3)CCN2)cc(C(C)(C)C)c1 [Example 146, 5-((2R,4S)-2-(3,5-Di-tert-butylbenzyl)piperidin-4-yl)isoxazol-3(2H)-one] |
| 1940 µM | O=c1cc([C@@H]2CCN[C@H](c3ccc(Cl)cc3Cl)C2)o[nH]1 [Example 52, 5-((2S,4R)-2-(2,4-Dichlorophenyl)piperidin-4-yl)isoxazol-3(2H)-one] |
| 1.7 µM | O=c1cc([C@H]2CCN[C@@H](Cc3cccc(C(F)(F)F)c3)C2)o[nH]1 [Example 107, 5-((2R,4S)-2-(3-(Trifluoromethyl)benzyl)piperidin-4-yl)isoxazol-3(2H)-one] |
| 42 µM | Cn1nnnc1[C@H]1C[C@@H](c2cc(=O)[nH]o2)CCN1 [Example 83, 5-((2R,4S)-2-(1-Methyl-1H-tetrazol-5-yl)piperidin-4-yl)isoxazol-3(2H)-one] |
| 0.8 µM | CS(=O)(=O)c1ccc(C[C@H]2C[C@@H](c3cc(=O)[nH]o3)CCN2)cc1 [Example 117, 5-((2R,4S)-2-(4-(Methylsulfonyl)benzyl)piperidin-4-yl)isoxazol-3(2H)-one] |
| 3.1 µM | O=c1cc([C@H]2CCN[C@@H](c3ccc(C(F)(F)F)c(F)c3)C2)o[nH]1 [Example 75, 5-((2R,4S)-2-(3-Fluoro-4-(trifluoromethyl)phenyl)piperidin-4-yl)isoxazol-3(2H)-one] |
| 33.1 µM | O=c1cc([C@@H]2CCN[C@H](c3cccc(C(F)(F)F)c3)C2)o[nH]1 [Example 31, 5-((2S,4R)-2-(3-(Trifluoromethyl)phenyl)piperidin-4-yl)isoxazol-3(2H)-one] |
| 8 µM | O=c1cc([C@H]2CCN[C@@H](c3ccccc3)C2)o[nH]1 [Example 77, 5-((2R,4S)-2-Phenylpiperidin-4-yl)isoxazol-3(2H)-one] |
| 1.9 µM | O=c1cc([C@H]2CCN[C@@H](c3cc(F)c(F)c(F)c3)C2)o[nH]1 [Example 60, 5-((2R,4S)-2-(3,4,5-Trifluorophenyl)piperidin-4-yl)isoxazol-3(2H)-one] |
| 1.2 µM | O=c1cc([C@H]2CCN[C@@H](Cc3ccccc3C(F)(F)F)C2)o[nH]1 [Example 110, 5-((2R,4S)-2-(2-(Trifluoromethyl)benzyl)piperidin-4-yl)isoxazol-3(2H)-one] |
| 1.9 µM | CC(C)(C)c1cccc([C@H]2C[C@@H](c3cc(=O)[nH]o3)CCN2)c1 [Example 36, 5-((2R,4S)-2-(3-tert-Butylphenyl)piperidin-4-yl)isoxazol-3(2H)-one] |
| 2 µM | O=c1cc([C@H]2CCN[C@@H](c3ccc(Cl)c(F)c3)C2)o[nH]1 [Example 49, 5-((2R,4S)-2-(4-Chloro-3-fluorophenyl)piperidin-4-yl)isoxazol-3(2H)-one] |
| 92.5 µM | Cc1cc([C@H]2C[C@H](c3cc(=O)[nH]o3)CCN2)ccc1C(F)(F)F (relative stereo) [Example 69, 5-(Trans-2-(3-methyl-4-(trifluoromethyl)phenyl)piperidin-4-yl)isoxazol-3(2H)-one] |
| 0.8 µM | O=c1cc([C@H]2CCN[C@@H](Cc3ccc(Cl)cc3)C2)o[nH]1 [Example 115, 5-((2R,4S)-2-(4-Chlorobenzyl)piperidin-4-yl)isoxazol-3(2H)-one] |
| 1.54 µM | O=c1cc([C@H]2CCN[C@@H](c3ccc(C(F)(F)F)cc3F)C2)o[nH]1 [Example 73, 5-((2R,4S)-2-(2-Fluoro-4-(trifluoromethyl)phenyl)piperidin-4-yl)isoxazol-3(2H)-one] |
| 1.5 µM | O=c1cc([C@H]2CCN[C@@H](Cc3ccc(C(F)(F)F)cc3)C2)o[nH]1 [Example 104, 5-((2R,4S)-2-(4-(Trifluoromethyl)benzyl)piperidin-4-yl)isoxazol-3(2H)-one] |
